Results from PubChem BioAssay (NCI).
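How tested: cells in 96-well plates exposed to compound for 48 hours at five concentrations. TGI marks complete inhibition of growth.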

Key:
Assay in all cases: NCI anticancer screen, dose series, 48 h
NCI-H226 lung = tested on: NCI-H226 lung
UO-31 renal = tested on: UO-31 renal
MDA-N = tested on: MDA-N
TK-10 renal = tested on: TK-10 renal
MCF7 breast = tested on: MCF7 breast
A549 NSCLC = tested on: A549 NSCLC
786-0 renal = tested on: 786-0 renal
OVCAR-5 ovarian = tested on: OVCAR-5 ovarian
OVCAR-4 ovarian = tested on: OVCAR-4 ovarian
MDA-MB-231 breast = tested on: MDA-MB-231 breast
OVCAR-8 ovarian = tested on: OVCAR-8 ovarian
CAKI-1 renal = tested on: CAKI-1 renal
EKVX NSCLC = tested on: EKVX NSCLC
A498 renal = tested on: A498 renal
SNB-19 CNS = tested on: SNB-19 CNS
HOP-92 NSCLC = tested on: HOP-92 NSCLC
PC-3 prostate = tested on: PC-3 prostate
HCT-116 colon = tested on: HCT-116 colon
SNB-75 CNS = tested on: SNB-75 CNS
LOX IMVI melanoma = tested on: LOX IMVI melanoma
SF-268 CNS = tested on: SF-268 CNS
SK-OV-3 ovarian = tested on: SK-OV-3 ovarian
NCI-H23 lung = tested on: NCI-H23 lung
SW-620 colon = tested on: SW-620 colon
ACHN renal = tested on: ACHN renal
KM12 colon = tested on: KM12 colon
SF-539 CNS = tested on: SF-539 CNS
K-562 leukemia = tested on: K-562 leukemia
BT-549 breast = tested on: BT-549 breast
HOP-62 NSCLC = tested on: HOP-62 NSCLC
SF-295 CNS = tested on: SF-295 CNS
RXF 393 renal = tested on: RXF 393 renal
U251 CNS = tested on: U251 CNS
OVCAR-3 ovarian = tested on: OVCAR-3 ovarian
M14 melanoma = tested on: M14 melanoma
HT29 colon = tested on: HT29 colon
UACC-62 melanoma = tested on: UACC-62 melanoma
IGROV1 ovarian = tested on: IGROV1 ovarian
HS 578T breast = tested on: HS 578T breast
MALME-3M melanoma = tested on: MALME-3M melanoma
UACC-257 melanoma = tested on: UACC-257 melanoma
HCC-2998 colon = tested on: HCC-2998 colon
NCI/ADR-RES ovarian = tested on: NCI/ADR-RES ovarian
SN12C renal = tested on: SN12C renal
RPMI-8226 leukemia = tested on: RPMI-8226 leukemia
MDA-MB-435 = tested on: MDA-MB-435
T-47D breast = tested on: T-47D breast
NCI-H460 lung = tested on: NCI-H460 lung
SK-MEL-2 melanoma = tested on: SK-MEL-2 melanoma
HCT-15 colon = tested on: HCT-15 colon
SK-MEL-28 melanoma = tested on: SK-MEL-28 melanoma
NCI-H522 lung = tested on: NCI-H522 lung
COLO 205 colon = tested on: COLO 205 colon
CCRF-CEM leukemia = tested on: CCRF-CEM leukemia
HL-60(TB) leukemia = tested on: HL-60(TB) leukemia
DU-145 prostate = tested on: DU-145 prostate
MOLT-4 leukemia = tested on: MOLT-4 leukemia
SK-MEL-5 melanoma = tested on: SK-MEL-5 melanoma

Nc1[nH]c(=O)[nH]c(=O)c1Cc1cccc(Cl)c1
TGI (NCI-H226 lung): > 100 µM | TGI (UO-31 renal): > 100 µM | TGI (MDA-N): > 100 µM | TGI (TK-10 renal): > 100 µM | TGI (MCF7 breast): 48.8 µM | TGI (A549 NSCLC): > 100 µM | TGI (786-0 renal): > 100 µM | TGI (OVCAR-5 ovarian): > 100 µM | TGI (OVCAR-4 ovarian): > 100 µM | TGI (MDA-MB-231 breast): > 100 µM | TGI (OVCAR-8 ovarian): > 100 µM | TGI (CAKI-1 renal): > 100 µM | TGI (EKVX NSCLC): > 100 µM | TGI (A498 renal): > 100 µM | TGI (SNB-19 CNS): > 100 µM | TGI (HOP-92 NSCLC): > 100 µM | TGI (PC-3 prostate): > 100 µM | TGI (HCT-116 colon): > 100 µM | TGI (SNB-75 CNS): > 100 µM | TGI (LOX IMVI melanoma): > 100 µM | TGI (SF-268 CNS): > 100 µM | TGI (SK-OV-3 ovarian): > 100 µM | TGI (NCI-H23 lung): > 100 µM | TGI (SW-620 colon): > 100 µM | TGI (ACHN renal): > 100 µM | TGI (KM12 colon): > 100 µM | TGI (SF-539 CNS): > 100 µM | TGI (K-562 leukemia): > 100 µM | TGI (BT-549 breast): > 100 µM | TGI (HOP-62 NSCLC): > 100 µM | TGI (SF-295 CNS): > 100 µM | TGI (RXF 393 renal): > 100 µM | TGI (U251 CNS): > 100 µM | TGI (OVCAR-3 ovarian): > 100 µM | TGI (M14 melanoma): > 100 µM | TGI (HT29 colon): > 100 µM | TGI (UACC-62 melanoma): > 100 µM | TGI (IGROV1 ovarian): > 100 µM | TGI (HS 578T breast): > 100 µM | TGI (MALME-3M melanoma): > 100 µM | TGI (UACC-257 melanoma): > 100 µM | TGI (HCC-2998 colon): > 100 µM | TGI (NCI/ADR-RES ovarian): > 100 µM | TGI (SN12C renal): > 100 µM | TGI (RPMI-8226 leukemia): > 100 µM | TGI (MDA-MB-435): > 100 µM | TGI (T-47D breast): > 100 µM | TGI (NCI-H460 lung): > 100 µM | TGI (SK-MEL-2 melanoma): > 100 µM | TGI (HCT-15 colon): > 100 µM | TGI (SK-MEL-28 melanoma): > 100 µM | TGI (NCI-H522 lung): > 100 µM | TGI (COLO 205 colon): > 100 µM

CNC(=O)CCCNC(=O)CCCC(=O)OC
TGI (NCI-H226 lung): > 100 µM | TGI (UO-31 renal): > 100 µM | TGI (MDA-N): > 100 µM | TGI (TK-10 renal): > 100 µM | TGI (MCF7 breast): > 100 µM | TGI (A549 NSCLC): > 100 µM | TGI (786-0 renal): > 100 µM | TGI (OVCAR-5 ovarian): > 100 µM | TGI (MDA-MB-231 breast): > 100 µM | TGI (OVCAR-8 ovarian): > 100 µM | TGI (CAKI-1 renal): > 100 µM | TGI (EKVX NSCLC): > 100 µM | TGI (CCRF-CEM leukemia): > 100 µM | TGI (A498 renal): > 100 µM | TGI (SNB-19 CNS): > 100 µM | TGI (HOP-92 NSCLC): > 100 µM | TGI (PC-3 prostate): > 100 µM | TGI (HCT-116 colon): > 100 µM | TGI (SNB-75 CNS): > 100 µM | TGI (LOX IMVI melanoma): > 100 µM | TGI (SF-268 CNS): > 100 µM | TGI (SK-OV-3 ovarian): > 100 µM | TGI (NCI-H23 lung): > 100 µM | TGI (SW-620 colon): > 100 µM | TGI (ACHN renal): > 100 µM | TGI (HL-60(TB) leukemia): > 100 µM | TGI (KM12 colon): > 100 µM | TGI (SF-539 CNS): > 100 µM | TGI (K-562 leukemia): > 100 µM | TGI (BT-549 breast): > 100 µM | TGI (HOP-62 NSCLC): > 100 µM | TGI (SF-295 CNS): > 100 µM | TGI (U251 CNS): > 100 µM | TGI (OVCAR-3 ovarian): > 100 µM | TGI (M14 melanoma): > 100 µM | TGI (DU-145 prostate): > 100 µM | TGI (HT29 colon): > 100 µM | TGI (UACC-62 melanoma): > 100 µM | TGI (IGROV1 ovarian): > 100 µM | TGI (HS 578T breast): > 100 µM | TGI (MALME-3M melanoma): > 100 µM | TGI (UACC-257 melanoma): > 100 µM | TGI (HCC-2998 colon): > 100 µM | TGI (MOLT-4 leukemia): > 100 µM | TGI (NCI/ADR-RES ovarian): > 100 µM | TGI (SN12C renal): > 100 µM | TGI (RPMI-8226 leukemia): > 100 µM | TGI (MDA-MB-435): > 100 µM | TGI (T-47D breast): > 100 µM | TGI (NCI-H460 lung): > 100 µM | TGI (SK-MEL-2 melanoma): > 100 µM | TGI (SK-MEL-5 melanoma): > 100 µM | TGI (HCT-15 colon): > 100 µM | TGI (SK-MEL-28 melanoma): > 100 µM | TGI (NCI-H522 lung): > 100 µM | TGI (COLO 205 colon): > 100 µM
